# Measurements reported in patent US20230181474A1, “TABLET COMPRISING OPICAPONE” (Ono Pharmaceutical Co., Ltd., priority 2020, published 2023).
# Experiment: Evaluation of particle size by dynamic particle image analysis (iSpect DIA-10)
# Format: physicochemical
# Conditions: dispersion medium 10% polysorbate 20 aqueous solution
# Text: In the present specification, “maximum length” refers to a maximum length between two points on a contour of a particle, and this may be measured by the dynamic image analysis method. An example of the equipment used for measurement is the dynamic particle image analysis system iSpect DIA-10 (Shimadzu Corporation). In the present invention, the maximum length of particles of opicapone or a pharmaceutically acceptable salt thereof in terms of D50 value is less than 46 µm, preferably 45 µm or less, more preferably 40 µm or less, even more preferably 35 µm or less, and particularly preferably 30 µm or less or 29 µm or less. In the present invention, the maximum length of particles of opicapone or a pharmaceutically acceptable salt thereof in terms of D90 value is, for example, less than 111 µm, preferably 110 µm or less, more preferably 100 µm or less, even more preferably 90 µm or less, and particularly preferably 80 µm or less.
# In the present specification, “equivalent circle diameter” refers to the diameter of a circle that has the same area as the projected area of a particle image, and this may be measured by the dynamic image analysis method. An example of the equipment used for measurement is the dynamic particle image analysis system iSpect DIA-10 (Shimadzu Corporation).
# The particle sizes of the non-micronized product and the micronized products A1 to A4 prepared in Example 1 using the opicapone drug substance were measured under the following conditions.
# • Measurement equipment: Dynamic particle image analysis system iSpect DIA-10 (Shimadzu Corporation) • Evaluation items: Equivalent circle diameter, maximum length • Dispersion medium: 10% polysorbate 20 aqueous solution • Sample: Approximately 10 mg of the measurement sample was placed in 1 ml of the dispersion medium, suspended, and then diluted 100-fold.
Compound,Equivalent Circle Diameter D10 [µm],Equivalent Circle Diameter D50 [µm],Equivalent Circle Diameter D90 [µm],Maximum Length D10 [µm],Maximum Length D90 [µm],Maximum Length D50 [µm]
Cc1nc(Cl)c(-c2noc(-c3cc(O)c(O)c([N+](=O)[O-])c3)n2)c(C)c1Cl [Micronized Product A3],7,11,19,15,73,
Cc1nc(Cl)c(-c2noc(-c3cc(O)c(O)c([N+](=O)[O-])c3)n2)c(C)c1Cl [Micronized Product A 1],7,11,,16,63,28
Cc1nc(Cl)c(-c2noc(-c3cc(O)c(O)c([N+](=O)[O-])c3)n2)c(C)c1Cl [Non-micronized Product],6,13,23,16,111,
Cc1nc(Cl)c(-c2noc(-c3cc(O)c(O)c([N+](=O)[O-])c3)n2)c(C)c1Cl [Micronized Product A2],7,11,18,16,60,26
